In ChEMBL document CHEMBL4130561, “Design and Synthesis of N1-Modified Imidazoquinoline Agonists for Selective Activation of Toll-like Receptors 7 and 8” (ACS Med Chem Lett, 2017):
The source made the active and inactive calls. The calls are words filed in the database; no cut-off is given here.

Key:
[1] = target: T1, Toll-like receptor 8 (Homo sapiens) (UniProt Q9NR97); assay: Agonist activity at human TLR8 expressed in HEK cells at 180 uM after 8 to 12 hrs by NFkappaB/SEAP reporter gene assay; format: cell-based
T1 sequence (whole entry): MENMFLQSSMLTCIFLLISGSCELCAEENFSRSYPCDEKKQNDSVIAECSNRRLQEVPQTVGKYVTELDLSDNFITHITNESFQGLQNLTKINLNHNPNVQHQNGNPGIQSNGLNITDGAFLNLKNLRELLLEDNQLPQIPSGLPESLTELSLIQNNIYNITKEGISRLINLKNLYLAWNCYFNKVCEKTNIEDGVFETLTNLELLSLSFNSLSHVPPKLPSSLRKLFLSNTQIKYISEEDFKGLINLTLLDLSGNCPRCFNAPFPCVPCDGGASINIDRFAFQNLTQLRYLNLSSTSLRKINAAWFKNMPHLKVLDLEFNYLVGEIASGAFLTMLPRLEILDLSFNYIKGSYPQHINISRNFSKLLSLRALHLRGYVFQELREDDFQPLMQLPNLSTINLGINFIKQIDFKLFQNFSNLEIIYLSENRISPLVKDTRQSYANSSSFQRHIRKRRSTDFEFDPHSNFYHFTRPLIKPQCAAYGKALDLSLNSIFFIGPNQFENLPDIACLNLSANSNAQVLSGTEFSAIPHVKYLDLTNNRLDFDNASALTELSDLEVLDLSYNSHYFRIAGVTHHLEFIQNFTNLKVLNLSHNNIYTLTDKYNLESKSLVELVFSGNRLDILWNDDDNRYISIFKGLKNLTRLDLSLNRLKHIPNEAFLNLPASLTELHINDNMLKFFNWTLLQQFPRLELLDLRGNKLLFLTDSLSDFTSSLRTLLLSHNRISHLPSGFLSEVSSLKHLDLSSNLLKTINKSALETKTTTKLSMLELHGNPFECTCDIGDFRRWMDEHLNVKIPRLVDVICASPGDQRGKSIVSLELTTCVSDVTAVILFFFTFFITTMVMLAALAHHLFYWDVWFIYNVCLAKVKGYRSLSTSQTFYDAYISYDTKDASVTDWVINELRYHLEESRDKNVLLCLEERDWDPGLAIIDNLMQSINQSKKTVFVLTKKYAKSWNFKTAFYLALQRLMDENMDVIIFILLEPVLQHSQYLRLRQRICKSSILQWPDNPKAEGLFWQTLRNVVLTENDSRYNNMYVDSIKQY

[2] = target: T2, Toll-like receptor 7 (Homo sapiens) (UniProt Q9NYK1); assay: Agonist activity at human TLR7 expressed in HEK cells at 180 uM after 8 to 12 hrs by NFkappaB/SEAP reporter gene assay; format: cell-based
T2 sequence (whole entry): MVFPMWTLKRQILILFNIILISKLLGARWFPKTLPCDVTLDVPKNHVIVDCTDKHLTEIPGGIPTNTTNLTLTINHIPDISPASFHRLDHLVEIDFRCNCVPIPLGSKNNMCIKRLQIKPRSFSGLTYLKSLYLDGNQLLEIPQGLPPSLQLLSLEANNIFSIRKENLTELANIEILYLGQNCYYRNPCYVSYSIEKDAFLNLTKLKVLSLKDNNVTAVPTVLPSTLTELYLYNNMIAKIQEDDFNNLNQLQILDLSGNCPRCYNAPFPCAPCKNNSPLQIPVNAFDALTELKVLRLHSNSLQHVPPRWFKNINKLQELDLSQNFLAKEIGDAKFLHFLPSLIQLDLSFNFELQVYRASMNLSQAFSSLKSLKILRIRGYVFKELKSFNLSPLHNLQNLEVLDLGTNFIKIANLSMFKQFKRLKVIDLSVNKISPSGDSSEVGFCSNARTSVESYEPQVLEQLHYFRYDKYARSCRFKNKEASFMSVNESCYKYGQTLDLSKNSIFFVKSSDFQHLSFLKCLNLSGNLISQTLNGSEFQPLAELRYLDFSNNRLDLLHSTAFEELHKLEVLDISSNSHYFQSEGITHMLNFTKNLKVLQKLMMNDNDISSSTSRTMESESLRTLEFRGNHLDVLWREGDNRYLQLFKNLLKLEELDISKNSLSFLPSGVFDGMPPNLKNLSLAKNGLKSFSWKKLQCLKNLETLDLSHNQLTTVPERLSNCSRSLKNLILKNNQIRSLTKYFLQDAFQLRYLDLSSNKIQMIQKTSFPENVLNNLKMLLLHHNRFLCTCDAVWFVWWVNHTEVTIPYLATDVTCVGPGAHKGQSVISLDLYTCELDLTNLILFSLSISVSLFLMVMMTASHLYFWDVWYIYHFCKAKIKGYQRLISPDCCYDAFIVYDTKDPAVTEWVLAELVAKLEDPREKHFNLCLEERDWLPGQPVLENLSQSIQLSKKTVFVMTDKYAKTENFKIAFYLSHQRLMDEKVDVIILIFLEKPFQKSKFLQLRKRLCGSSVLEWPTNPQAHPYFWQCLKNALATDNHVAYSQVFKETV

Toll-like receptor 7 = target: T3, Toll-like receptor 7 (Homo sapiens, UniProt Q9NYK1); assay: Agonist activity at human TLR7 expressed in HEK cells after 8 to 12 hrs by NFkappaB/SEAP reporter gene assay; format: cell-based
T3 sequence (Q9NYK1 whole entry): T2 sequence (whole entry)

PBMC [3] = assay: Immunostimulatory activity in human PBMC assessed as increase in IFNgamma levels at 0.39 to 50 uM after 24 hrs by ELISA; format: functional, cell-based
PBMC [4] = assay: Immunostimulatory activity in human PBMC assessed as increase in IL-12p70 levels at 0.39 to 50 uM after 24 hrs by ELISA; format: functional, cell-based
PBMC [5] = assay: Immunostimulatory activity in human PBMC assessed as increase in IL-1beta levels at 0.39 to 50 uM after 24 hrs by ELISA; format: functional, cell-based
PBMC [6] = assay: Immunostimulatory activity in human PBMC assessed as increase in TNFalpha levels at 0.39 to 50 uM after 24 hrs by ELISA; format: functional, cell-based
Toll-like receptor 8 = target: T4, Toll-like receptor 8 (Homo sapiens, UniProt Q9NR97); assay: Agonist activity at human TLR8 expressed in HEK cells after 8 to 12 hrs by NFkappaB/SEAP reporter gene assay; format: cell-based
T4 sequence (Q9NR97 whole entry): T1 sequence (whole entry)

PBMC [7] = assay: Immunostimulatory activity in human PBMC assessed as increase in TNFalpha levels at 12.5 uM after 24 hrs by ELISA; format: functional, cell-based
PBMC [8] = assay: Immunostimulatory activity in human PBMC assessed as increase in IFNgamma levels at 12.5 uM after 24 hrs by ELISA; format: functional, cell-based
PBMC [9] = assay: Immunostimulatory activity in human PBMC assessed as increase in IL-1beta levels at 12.5 uM after 24 hrs by ELISA; format: functional, cell-based
PBMC [10] = assay: Immunostimulatory activity in human PBMC assessed as increase in IL-12p70 levels at 12.5 uM after 24 hrs by ELISA; format: functional, cell-based
PBMC [11] = assay: Immunostimulatory activity in human PBMC assessed as increase in IFNgamma levels at 1 uM after 24 hrs by ELISA; format: functional, cell-based
PBMC [12] = assay: Immunostimulatory activity in human PBMC assessed as increase in IL-1beta levels at 1 uM after 24 hrs by ELISA; format: functional, cell-based
PBMC [13] = assay: Immunostimulatory activity in human PBMC assessed as increase in TNFalpha levels at 1 uM after 24 hrs by ELISA; format: functional, cell-based

SMILES: CCCCc1nc2c(N)nc3cc(C(=O)OC)ccc3c2n1CCCCC(=O)O
- Activity [1]: inactive
- Activity [2]: inactive

SMILES: CCCCc1nc2c(N)nc3cc(C(=O)OC)ccc3c2n1CCCCO
- Activity [1]: inactive
- EC50 (Toll-like receptor 7): 3.21 µM

SMILES: CC(C)Cn1cnc2c(N)nc3ccccc3c21 [IMIQUIMOD]
- Activity [1]: inactive
- Activity (PBMC [3]): inactive
- Activity (PBMC [4]): inactive
- Activity (PBMC [5]): inactive
- Activity (PBMC [6]): inactive
- EC50 (Toll-like receptor 7): 11.4 µM

SMILES: CCCCc1nc2c(N)nc3cc(C(=O)OC)ccc3c2n1CCCN
- Activity [2]: inactive
- EC50 (Toll-like receptor 8): 26.7 µM

SMILES: CCCCc1nc2c(N)nc3cc(C(=O)OC)ccc3c2n1CC(C)OC(C)=O (configuration not stated)
- Activity [1]: inactive
- EC50 (Toll-like receptor 7): 3.06 µM

SMILES: CCCCc1nc2c(N)nc3cc(C(=O)OC)ccc3c2n1CCCCN
- Activity [2]: inactive

SMILES: CCCCc1nc2c(N)nc3cc(C(=O)OC)ccc3c2n1CCCO
- Activity [1]: inactive
- EC50 (Toll-like receptor 7): 1.72 µM

SMILES: CCCCc1nc2c(N)nc3cc(C(=O)OC)ccc3c2n1CC(C)(C)O
- EC50 (Toll-like receptor 8): 20.9 µM
- EC50 (Toll-like receptor 7): 1.69 µM

SMILES: CCCCc1nc2c(N)nc3cc(C(=O)OC)ccc3c2n1Cc1ccc(CN)cc1
- Activity (PBMC [7]): Active

SMILES: CCCCc1nc2c(N)nc3cc(C(=O)OC)ccc3c2n1CC(=O)OC
- Activity [1]: inactive

SMILES: CCCCc1nc2c(N)nc3cc(C(=O)OC)ccc3c2n1CCc1ccc(C(=O)O)cc1
- Activity [1]: inactive
- Activity [2]: inactive

SMILES: CCCCc1nc2c(N)nc3cc(C(=O)OC)ccc3c2n1CCCCCC(=O)OC
- Activity [1]: inactive

SMILES: CCCCc1nc2c(N)nc3cc(C(=O)OC)ccc3c2n1Cc1ccc(C(=O)O)cc1
- Activity [1]: inactive

SMILES: CCCCCCCC(=O)OC(C)Cn1c(CCCC)nc2c(N)nc3cc(C(=O)OC)ccc3c21 (configuration not stated)
- Activity [1]: inactive
- Activity [2]: inactive

SMILES: CCCCc1nc2c(N)nc3cc(C(=O)OC)ccc3c2n1CCN
- Activity (PBMC [8]): Active
- Activity (PBMC [9]): Active
- Activity [2]: inactive
- Activity (PBMC [10]): Active

SMILES: CCCCc1nc2c(N)nc3cc(C(=O)OC)ccc3c2n1CCSC
- Activity (PBMC [11]): Active
- Activity [1]: inactive
- Activity (PBMC [12]): Active
- Activity (PBMC [13]): Active

SMILES: CCCCc1nc2c(N)nc3cc(C(=O)OC)ccc3c2n1CCO
- EC50 (Toll-like receptor 8): 37 µM
- EC50 (Toll-like receptor 7): 14.4 µM

SMILES: CCCCc1nc2c(N)nc3cc(C(=O)OC)ccc3c2n1CCCSC
- Activity [1]: inactive

SMILES: CCCCc1nc2c(N)nc3cc(C(=O)OC)ccc3c2n1CCC(=O)OC
- Activity [1]: inactive

SMILES: CCCCc1nc2c(N)nc3cc(C(=O)OC)ccc3c2n1CCCC(=O)OC
- Activity [1]: inactive

SMILES: CCCCc1nc2c(N)nc3cc(C(=O)OC)ccc3c2n1CCSCC
- Activity [1]: inactive

SMILES: CCCCc1nc2c(N)nc3cc(C(=O)OC)ccc3c2n1CCCCC(=O)OC
- Activity [1]: inactive
